# Data from PMC3648545, “A Phenylalanine to Serine Substitution within an O-Protein Mannosyltransferase Led to Strong Resistance to PMT-Inhibitors in Pichia pastoris” (PLoS ONE, 2013).
# Molecular target: T1, Pmt2p (PpPmt2p) (Komagataella phaffii, UniProt F2QTJ8)
# T1 construct: gene PMT2; full-length native integral ER membrane protein in intact cells (chromosomal PMT2); Pmt1p-Pmt2p heterodimer, other PMTs also present; with Dolichyl-phosphate-mannose--protein mannosyltransferase 1
# Assay: HPAEC-PAD of O-mannosylglycan site occupancy on mAb#[…] secreted by intact cells
# Assay type: cell-based
# Conditions: fed-batch fermentation, PMTi-4 8 µM (Figure 4 legend; Discussion prints 8 mM); read-out is total O-mannosylation by all PMTs, not isolated Pmt2p; direct binding not shown
# T1 sequence (F2QTJ8 entry or part of it): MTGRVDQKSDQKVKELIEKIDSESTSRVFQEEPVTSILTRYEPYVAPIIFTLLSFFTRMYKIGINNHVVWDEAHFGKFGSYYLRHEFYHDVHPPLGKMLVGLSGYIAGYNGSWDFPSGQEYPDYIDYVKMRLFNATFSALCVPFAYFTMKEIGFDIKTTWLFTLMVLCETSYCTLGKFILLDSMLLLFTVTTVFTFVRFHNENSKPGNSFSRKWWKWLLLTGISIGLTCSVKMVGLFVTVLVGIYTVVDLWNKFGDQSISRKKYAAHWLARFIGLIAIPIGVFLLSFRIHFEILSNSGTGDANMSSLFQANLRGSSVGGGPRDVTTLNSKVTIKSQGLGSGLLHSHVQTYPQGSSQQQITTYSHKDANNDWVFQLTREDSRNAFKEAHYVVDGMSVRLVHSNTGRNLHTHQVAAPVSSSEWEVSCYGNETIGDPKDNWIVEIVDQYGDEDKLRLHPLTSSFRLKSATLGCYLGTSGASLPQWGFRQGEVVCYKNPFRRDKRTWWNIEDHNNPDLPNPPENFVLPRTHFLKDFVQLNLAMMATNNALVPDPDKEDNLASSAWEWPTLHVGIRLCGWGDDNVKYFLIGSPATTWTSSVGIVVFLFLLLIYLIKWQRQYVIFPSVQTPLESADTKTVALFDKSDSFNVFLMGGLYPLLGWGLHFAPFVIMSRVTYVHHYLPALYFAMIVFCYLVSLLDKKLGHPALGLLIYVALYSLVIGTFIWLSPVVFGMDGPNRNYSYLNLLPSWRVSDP
substance,measurement,value
PMTi-4,O-mannosylglycan site occupancy,3.1 O-mannose chains per mAb H2L2 (56 without inhibitor)
